Source: patent US20060040390A1, “Device, method, system, and program for intelligent in vivo cell-level chemical or genetic material delivery” (priority 2004, published 2006)
Values belong to the molecule of their own block, whether it stands above or below them.

What was measured:
[1] = test system: KB-V cells; experiment: cells
[2] = test system: mouse fibroblasts stably transfected with IGF-R; settings: 72 h
[3] = test system: neuroblastoma (B104 cells) xenografted in nude mice; experiment: In vivo tumor study, B104 neuroblastoma xenografted in nude mice
Source text: Nude mice (seven weeks old, female) are used to test the effect of paclitaxel in tumor progression. […] Tumor growth is monitored daily. Mice are then randomized and treatments are initiated. […] Measurements of tumor volume are taken using calipers, every day post treatment for a total of 25 days.

[4] = test system: B104 cells
Experimental: The B104 cells are a rat neuroblastoma line that expresses p75 receptors (p75^+). The 4-3.6 cells are B104 cells stably transfected with human TrkA cDNA (p75^+, TrkA^+).
Therefore, tested is whether a single bolus of paclitaxel is an effective cytotoxic agent. Cells ae exposed to the indicated concentration of paclitaxel for 30 minutes at 4° C. Then, cells are plated in a 96-well plate (Falcon); this group represents treatment with paclitaxel present in a constant manner. The remaining cells are washed free of excess paclitaxel prior to plating; this group represents a single exposure to paclitaxel. […] Optical density readings of MTT are done in an EIA Plate Reader model 2550 (Bio-Rad) at 595 nm.
Paclitaxel is lipophilic and readily penetrates the cell membrane. […] Tested is whether a single short term exposure to paclitaxel can be effective in killing neuroblastoma B104 cells. These assays are done at 4°
The mAbs purpose is purely for target binding.

[5] = test system: cells that do not express p75; experiment: Selectivity of paclitaxel-MC192 on cells that do not express p75; format: cell-based
[6] = test system: 4-3.6 cells; experiment: In vitro survival assay with caspase inhibitor, serum-withdrawal model, 4-3.6 cells; format: cell-based, rat; settings: ~48 hrs
Source text: (§1) 4-3.6 cells are placed in serum free media (SFM, PFHM-II, GIBCO, Toronto), where they undergo apoptosis (serum-withdrawal model).

[7] = test system: B104 cells; experiment: In vitro survival assay with caspase inhibitor, B104 cells that do not express TrkA; format: cell-based, rat; settings: B104 cells (no TrkA), serum free media
Experimental: as §1
Cells are then cultured for ~48 hrs. Cell growth/survival is calculated relative to 5% serum (standardized to 100%). Addition of serum protects cells in SFM from death.
Cell survival is measured by quantitative tetrazolium salt reagent (MTT, Sigma) and optical density (OD) readings as described [Maliartchouk, 1997]. n=3-6.
Testing 4-3.6 Cell Survival (MTT, % of serum control). Serum free media 0.+−. 4 5%. Serum 100.+−. 2 20 nM zVAD−2.+−. 3 VAD-5C3 conjugate (20 nM VAD equivalent, 1 nM 41.+−. 1 5C3). […] Typicaly, […] mAb 5C3 alone (unconjugated) does protect 4-3.6 cells in SFM to ~10%, which is a much lower degree of protection than equimolar doses of the VAD-5C3 conjugate.

IC50 ([1]; Homo sapiens, KBV, 72 h, read-out: IC50 ± SEM): > 320 nM
Molecule: COc1cccc2c1C(=O)c1c(O)c3c(c(O)c1C2=O)C[C@@](O)(C(=O)CO)C[C@@H]3O[C@H]1C[C@H](N)[C@H](O)[C@H](C)O1 [Doxorubicin]
cytotoxicity on multidrug resistant KB-V cells compared to sensitive KB cells [1]: inactive on KB-V cells unless Verapamil was added
cytotoxicity with or without excess antibody [2]: the same cytotoxicity whether excess of mig or α-IR3 is present or not

Molecule: CC(=O)O[C@H]1C(=O)[C@@]2(C)[C@H]([C@H](OC(=O)c3ccccc3)[C@]3(O)C[C@H](OC(=O)[C@H](O)[C@@H](NC(=O)c4ccccc4)c4ccccc4)C(C)=C1C3(C)C)[C@]1(OC(C)=O)CO[C@@H]1C[C@@H]2O [paclitaxel]
antitumor activity, tumor growth ([3]; nude mice, five IP injections every two days, versus control (HBSS)): not able to do so
efficacy of free drug at the conjugate's effective dose ([3]; ~3.5 nM): not effective at this dose
cytotoxic effect, single exposure versus constant presence [4]: generally the same whether the drug is present in the culture throughout or after a single exposure
cytotoxicity, constant versus single dose ([4]; rat, 48 h): the same after 48 hours whether a constant or a single dose is given
cytotoxicity on cells that do not express p75 [5]: dose-dependent cytotoxicity

Molecule: benzoic acid-Valine-Alanine-Aspartic acid-O-methyl-fluoromethyl-Iketone peptide [zVAD]
protection of cells in SFM [6]: does not protect cells
protection of B104 cells from death [7]: Neither 20 nM zVAD nor VAD-5c3 conjugate afford protection
